{"source": "paper PMC8241022", "about": "(Drug Delivery, 2017)", "key": {"[1]": {"conditions": "for dexamethasone concentration, Choroidal/retinal compound / dexamethasone concentration, Sclera / dexamethasone concentration, Vitreum: CCSDD: first dose 0.3 ml (5 mg/ml) DEXP, then 0.1 ml/h for 10 h, mean ± SD, n=6", "procedure": "(§1) Male and female New Zealand albino rabbits (about four months old and weighing 2.0–2.5 kg) were acquired from the Third Xiangya Hospital of Central South University (Changsha, China). All rabbits were examined thoroughly, and no ocular disease, then were randomly allocated to different groups for subsequent ocular PK studies. Animals were anesthetized by intramuscularly injecting Xylazine Hydrochloride Injection (2 ml:0.2 g, Huamu Animal Health Products Co., Jilin, 0.1–0.2 ml/kg) and dropped Oxybuprocaine Hydrochloride Eye Drops (20 ml:80 mg, Sa) three times, interval 2 min per time.\n(§2) Rabbits were randomly divided into three groups and six rabbits for each group per time point. […] After the last instillation in IV group (1 h, 3 h, 6 h, 12 h, 24 h) and SC injection group (1 h, 2 h, 3 h, 4 h, 6 h, 8 h, 12 h, 24 h), respectively, the ocular tissue were collected. […] Animals were euthanized by 3 ml lidocaine (3 ml/rabbit) and 3 ml air intravenously, immediately after death, ocular tissues were collected. Vitreous, choroid/retina and sclera were dissected and weighted as the solid tissues, the samples were stored at −20 °C and then processed for analysis.\n(§3) Frozen rabbit samples were thawed at ambient temperature, the solid samples were fixed with 400 ml 0.9% normal saline (NS) and homogenized. A 100 μl aliquot of Triamcinolone diacetate (I.S. 200 ng/ml) standard solution was added to 100 μl of each fluid sample and 400 μl 0.9% NS or homogenized samples. After a thorough vortex mixing for 30 s, the mixture was extracted with 1 ml n-hexane and acetate ester (1:1, v/v) for 60 min, the mixture was centrifuged at 14 000 rpm for 5 min. The organic layer was removed and evaporated under a gentle stream nitrogen gas at 45 °C until it was completely dry. The dried residue was dissolved with 50 μl mobile phase. After centrifugation, 5 μl of the clear supernatant was injected into the LC–MS system: LC-10AD VP low pressure gradient pump, CTO-10A VP column temperature oven, SCL-10AD VP system controller, and LC-MS chemstation. Separation was achieved on a Thermo Hypersil-Hypurity C18 column (150 mm × 2.1 mm, i.d., 5 μm, USA) at 40 °C. […] The operating parameters of ESI–MS (electrospray ionization–mass spectrometry) were as follows: capillary voltage was 4.5 kV; nebulizer nitrogen gas flow-rate was 1.5 l/min; drying N2 flow was 10 l/min; drying gas temperature was 250 °C, the gas used was of high purity, and system control and data evaluation were carried out using LC-MS chemstation (Japan). […] Quantitation was performed by a linear regression analysis of peak areas ratio from a standard curve containing seven standard points.\n(§4) The following pharmacokinetic parameters were obtained: peak concentration (Cmax), time to peak concentration (Tmax), elimination half-life (T1/2), area under the concentration–time curve between 0 and 24 h (AUC0–24).\n(§5) Tissue concentrations were analyzed using one-way analysis of variance (ANOVA). If there were differences in three groups, we used Dunnett T3 to analyze two groups. All other results were descriptive measures. Statistical significance was accepted at a level of p < 0.05."}, "[2]": {"conditions": "SC: subconjunctival injection of 0.3 ml (5 mg/ml) DEXP, mean ± SD, n=6", "procedure": "as §1, §2, §3, §4, §5"}, "[3]": {"conditions": "for dexamethasone concentration, Choroidal/retinal compound / dexamethasone concentration, Sclera / dexamethasone concentration, Vitreum: IV: intravenous injection of 1 mg/kg DEXP, mean ± SD, n=6", "procedure": "as §1, §2, §3, §4, §5"}, "in vivo [4]": {"assay": "in vivo", "conditions": "both, New Zealand albino, rabbit, iv, 1 mg/kg", "procedure": "as §1, §2, §3, §4, §5"}, "in vivo [5]": {"assay": "in vivo", "conditions": "both, New Zealand albino, rabbit; for Tmax: CCSDD group, 0.3 ml (5 mg/ml) DEXP then 0.1 ml/h for 10 h", "procedure": "as §1, §2, §3, §4, §5"}}, "note": "Read-outs that look alike come from different tables or passages of the source. Marks after values point to notes of the source that are not given here."}
{"smiles": "C[C@@H]1C[C@H]2[C@@H]3CCC4=CC(=O)C=C[C@]4(C)[C@@]3(F)[C@@H](O)C[C@]2(C)[C@@]1(O)C(=O)CO", "note": "[dexamethasone]", "values": [{"measurement": "AUC0–24, choroid/retinal compound", "setting": "[1]; CCSDD administration, rabbit", "value": 41400.70, "unit": "ng·h/g"}, {"measurement": "AUC0–24, sclera", "setting": "[1]; CCSDD administration, rabbit", "value": 93577.80, "unit": "ng·h/g"}, {"measurement": "dexamethasone concentration, Choroidal/retinal compound", "setting": "[1]; 1 h after first dose", "value": "2522.46 ± 425.94"}, {"measurement": "dexamethasone concentration, Sclera", "setting": "[1]; 1 h after first dose", "value": "11192.22 ± 5302.51"}, {"measurement": "dexamethasone concentration, Vitreum", "setting": "[1]; 1 h after first dose", "value": "71.05 ± 30.23"}, {"measurement": "dexamethasone concentration, Choroidal/retinal compound", "setting": "[1]; 3 h after first dose", "value": "3291.35 ± 438.11"}, {"measurement": "dexamethasone concentration, Sclera", "setting": "[1]; 3 h after first dose", "value": "9785.20 ± 1964.12"}, {"measurement": "dexamethasone concentration, Vitreum", "setting": "[1]; 3 h after first dose", "value": "57.23 ± 12.34"}, {"measurement": "dexamethasone concentration, Choroidal/retinal compound", "setting": "[1]; 6 h after first dose", "value": "2331.09 ± 454.41"}, {"measurement": "dexamethasone concentration, Sclera", "setting": "[1]; 6 h after first dose", "value": "6215.17 ± 1871.83"}, {"measurement": "dexamethasone concentration, Vitreum", "setting": "[1]; 6 h after first dose", "value": "50.23 ± 13.77"}, {"measurement": "dexamethasone concentration, Choroidal/retinal compound", "setting": "[1]; 10 h after first dose", "value": "1796.19 ± 380.36"}, {"measurement": "dexamethasone concentration, Sclera", "setting": "[1]; 10 h after first dose", "value": "4053.03 ± 1330.47"}, {"measurement": "dexamethasone concentration, Vitreum", "setting": "[1]; 10 h after first dose", "value": "50.51 ± 8.40"}, {"measurement": "dexamethasone concentration, Choroidal/retinal compound", "setting": "[1]; 11 h after first dose", "value": "1518.52 ± 332.81"}, {"measurement": "dexamethasone concentration, Sclera", "setting": "[1]; 11 h after first dose", "value": "3857.47 ± 1508.05"}, {"measurement": "dexamethasone concentration, Vitreum", "setting": "[1]; 11 h after first dose", "value": "42.84 ± 6.24"}, {"measurement": "dexamethasone concentration, Choroidal/retinal compound", "setting": "[1]; 12 h after first dose", "value": "1191.62 ± 303.29"}, {"measurement": "dexamethasone concentration, Sclera", "setting": "[1]; 12 h after first dose", "value": "1913.73 ± 389.28"}, {"measurement": "dexamethasone concentration, Vitreum", "setting": "[1]; 12 h after first dose", "value": "33.52 ± 5.31"}, {"measurement": "dexamethasone concentration, Choroidal/retinal compound", "setting": "[1]; 16 h after first dose", "value": "988.97 ± 336.43"}, {"measurement": "dexamethasone concentration, Sclera", "setting": "[1]; 16 h after first dose", "value": "1215.48 ± 449.07"}, {"measurement": "dexamethasone concentration, Choroidal/retinal compound", "setting": "[1]; 20 h after first dose", "value": "812.90 ± 188.26"}, {"measurement": "dexamethasone concentration, Sclera", "setting": "[1]; 20 h after first dose", "value": "906.40 ± 312.84"}, {"measurement": "dexamethasone concentration, Vitreum", "setting": "[1]; 20 h after first dose", "value": "27.78 ± 3.26"}, {"measurement": "dexamethasone concentration, Choroidal/retinal compound", "setting": "[1]; 24 h after first dose", "value": "418.20 ± 97.81"}, {"measurement": "dexamethasone concentration, Sclera", "setting": "[1]; 24 h after first dose", "value": "484.52 ± 155.25"}, {"measurement": "dexamethasone concentration, Vitreum", "setting": "[1]; 24 h after first dose", "value": "22.40 ± 4.38"}, {"measurement": "dexamethasone concentration, Choroidal/retinal compound", "setting": "[2]; 1 h", "value": "1881.83 ± 336.98^a"}, {"measurement": "dexamethasone concentration, Sclera", "setting": "[2]; 1 h", "value": "8604.95 ± 1597.26"}, {"measurement": "dexamethasone concentration, Vitreum", "setting": "[2]; 1 h", "value": "63.19 ± 15.12"}, {"measurement": "dexamethasone concentration, Choroidal/retinal compound", "setting": "[2]; 2 h", "value": "3212.63 ± 796.76"}, {"measurement": "dexamethasone concentration, Sclera", "setting": "[2]; 2 h", "value": "6071.65 ± 737.76"}, {"measurement": "dexamethasone concentration, Vitreum", "setting": "[2]; 2 h", "value": "80.45 ± 11.10"}, {"measurement": "dexamethasone concentration, Choroidal/retinal compound", "setting": "[2]; 3 h", "value": "3638.80 ± 580.05"}, {"measurement": "dexamethasone concentration, Sclera", "setting": "[2]; 3 h", "value": "4419.68 ± 1006.87^a"}, {"measurement": "dexamethasone concentration, Vitreum", "setting": "[2]; 3 h", "value": "73.77 ± 14.74"}, {"measurement": "dexamethasone concentration, Choroidal/retinal compound", "setting": "[2]; 4 h", "value": "1701.27 ± 551.90"}, {"measurement": "dexamethasone concentration, Sclera", "setting": "[2]; 4 h", "value": "2287.56 ± 742.66"}, {"measurement": "dexamethasone concentration, Vitreum", "setting": "[2]; 4 h", "value": "39.65 ± 8.87"}, {"measurement": "dexamethasone concentration, Choroidal/retinal compound", "setting": "[2]; 6 h", "value": "1333.65 ± 469.43^a"}, {"measurement": "dexamethasone concentration, Sclera", "setting": "[2]; 6 h", "value": "1645.75 ± 631.69^a"}, {"measurement": "dexamethasone concentration, Vitreum", "setting": "[2]; 6 h", "value": "34.53 ± 6.89"}, {"measurement": "dexamethasone concentration, Choroidal/retinal compound", "setting": "[2]; 8 h", "value": "760.86 ± 177.74"}, {"measurement": "dexamethasone concentration, Sclera", "setting": "[2]; 8 h", "value": "1031.78 ± 443.14"}, {"measurement": "dexamethasone concentration, Vitreum", "setting": "[2]; 8 h", "value": "28.29 ± 4.56"}, {"measurement": "dexamethasone concentration, Sclera", "setting": "[2]; 12 h", "value": "463.21 ± 136.14^a"}, {"measurement": "dexamethasone concentration, Vitreum", "setting": "[2]; 12 h", "value": "22.68 ± 5.40^a"}, {"measurement": "dexamethasone concentration, Choroidal/retinal compound", "setting": "[2]; 24 h", "value": "184.59 ± 94.86^a"}, {"measurement": "dexamethasone concentration, Sclera", "setting": "[2]; 24 h", "value": "237.94 ± 139.25^a"}, {"measurement": "dexamethasone concentration, Vitreum", "setting": "[2]; 24 h", "value": "3.71 ± 4.31^a"}, {"measurement": "AUC0–24, choroid/retinal compound", "setting": "[3]; IV route, rabbit", "value": 1571.71, "unit": "ng·h/g"}, {"measurement": "AUC0–24, sclera", "setting": "[3]; IV route, rabbit", "value": 2858.71, "unit": "ng·h/g"}, {"measurement": "dexamethasone concentration, Choroidal/retinal compound", "setting": "[3]; 1 h", "value": "140.57 ± 34.56^a"}, {"measurement": "dexamethasone concentration, Sclera", "setting": "[3]; 1 h", "value": "281.42 ± 60.13^a"}, {"measurement": "dexamethasone concentration, Vitreum", "setting": "[3]; 1 h", "value": "43.78 ± 2.62"}, {"measurement": "dexamethasone concentration, Sclera", "setting": "[3]; 3 h", "value": "402.99 ± 96.49^a"}, {"measurement": "dexamethasone concentration, Vitreum", "setting": "[3]; 3 h", "value": "30.08 ± 2.55^a"}, {"measurement": "dexamethasone concentration, Choroidal/retinal compound", "setting": "[3]; 6 h", "value": "90.75 ± 12.08^a"}, {"measurement": "dexamethasone concentration, Sclera", "setting": "[3]; 6 h", "value": "141.57 ± 31.46^a"}, {"measurement": "dexamethasone concentration, Vitreum", "setting": "[3]; 6 h", "value": "21.53 ± 2.66^a"}, {"measurement": "dexamethasone concentration, Choroidal/retinal compound", "setting": "[3]; 12 h", "value": "38.94 ± 13.00^a"}, {"measurement": "dexamethasone concentration, Sclera", "setting": "[3]; 12 h", "value": "64.38 ± 11.83^a"}, {"measurement": "dexamethasone concentration, Vitreum", "setting": "[3]; 12 h", "value": "5.34 ± 5.11^a"}, {"measurement": "dexamethasone concentration, Choroidal/retinal compound", "setting": "[3]; 24 h", "value": "3.71 ± 4.50^a"}, {"measurement": "dexamethasone concentration, Sclera", "setting": "[3]; 24 h", "value": "22.23 ± 7.44^a"}, {"measurement": "dexamethasone concentration, Vitreum", "setting": "[3]; 24 h", "value": "1.37 ± 2.14^a"}, {"measurement": "Cmax", "setting": "in vivo [4]; choroid/retina", "value": 285, "unit": "ng/g"}, {"measurement": "Tmax", "setting": "in vivo [4]; choroid/retina", "value": 3, "unit": "h"}, {"measurement": "Cmax", "setting": "in vivo [4]; sclera", "value": 403, "unit": "ng/g"}, {"measurement": "Tmax", "setting": "in vivo [4]; sclera", "value": 3, "unit": "h"}, {"measurement": "AUC(0-t)", "setting": "in vivo [4]; vitreous", "value": 285, "unit": "ng·h/mL"}, {"measurement": "Cmax", "setting": "in vivo [4]; vitreous", "value": 43.8, "unit": "ng/mL"}, {"measurement": "Tmax", "setting": "in vivo [4]; vitreous", "value": 1, "unit": "h"}, {"measurement": "Cmax", "setting": "in vivo [5]; choroid/retina", "value": 3220, "unit": "ng/g"}, {"measurement": "Cmax", "setting": "in vivo [5]; in vivo, topical or ocular, 6.5 mg", "value": 71, "unit": "ng/mL"}, {"measurement": "Tmax", "setting": "in vivo [5]; in vivo, topical or ocular, 6.5 mg, Choroidal/retinal compound", "value": 3, "unit": "h"}, {"measurement": "Tmax", "setting": "in vivo [5]; in vivo, topical or ocular, 6.5 mg, Sclera", "value": 1, "unit": "h"}, {"measurement": "Tmax", "setting": "in vivo [5]; in vivo, topical or ocular, 6.5 mg, Vitreum", "value": 1, "unit": "h"}, {"measurement": "Cmax", "setting": "in vivo [5]; sclera", "value": 11200, "unit": "ng/g"}, {"measurement": "AUC(0-t)", "setting": "in vivo [5]; vitreous, topical or ocular, 6.5 mg", "value": 1410, "unit": "ng·h/mL"}]}
